Measurements published in patent publication US4528375A, “Substituted 3,4-diamino-1,2,5-thiadiazoles having histamine H2 -receptor antagonist activity” (Bristol-Myers Company, priority 1984, dated 1985).

What was measured:
gastric acid secretion = test: Gastric Antisecretory Activity in the Gastric Fistula Rat; format: in vivo, Male Long Evans rats; conditions: sc; for Potency Ratio (cimetidine = 1.0): gastric fistula rat, relative to cimetidine
peptic ulcer disease = conditions: clinical evaluation, Gray et al., Lancet, 1, 8001 (1977); cited from earlier work

Structure (SMILES)	Potency Ratio (cimetidine = 1.0) (gastric acid secretion)	effectiveness in the treatment of peptic ulcer disease (peptic ulcer disease)	ED50 (gastric acid secretion; Rattus norvegicus, read-out: ED50 sc) [µmol/kg]
Nc1nsnc1NCCCOc1cccc(CN2CCCCC2)c1 [Example 1, 3-Amino-4-[3-(3-piperidinomethylphenoxy)propylamino]-1,2,5-thiadiazole]	37	–	–
CN(C)Cc1ccc(CSCCNc2nsnc2N)o1 [Example 2, 3-Amino-4-{2-[(5-dimethylaminomethyl-2-furyl)methylthio]ethylamino}-1,2,5-thiadiazole]	4.5	–	–
Cc1cc(CSCCNc2nsnc2N)sc1CN(C)C [Example 3, 3-Amino-4-{2-[(5-dimethylaminomethyl-4-methyl-2-thienyl)methylthio]ethylamino}-1,2,5-thiadiazole]	~ 7	–	–
Nc1nsnc1NCCCOc1cccc(CN2CCCC2)c1 [Example 4, 3-Amino-4-[3-(3-pyrrolidinomethylphenoxy)propylamino]-1,2,5-thiadiazole]	20	–	–
CN/C(=N/CCSCc1nc[nH]c1C)NC#N [cimetidine, reference compound]	–	effective therapeutic agent in the treatment of peptic ulcer disease	3.48
